Tested on: MV-4-11 cells
Test: Gene expression microarray analysis (Affymetrix PrimeView) and GSEA
Type: cell-based, human
Design: RFU PODN (11730768_x_at) / Fold change /veh PODN (11730768_x_at) / RFU LINC00158 (11744669_a_at) / Fold change /veh LINC00158 (11744669_a_at) / RFU DUSP10 (11751237_a_at) / Fold change /veh DUSP10 (11751237_a_at) / RFU ID3 (11757404_x_at) / Fold change /veh ID3 (11757404_x_at) / RFU PLEKHG5 (11737974_s_at) / Fold change /veh PLEKHG5 (11737974_s_at) / RFU LRRC4B (11730491_at) / Fold change /veh LRRC4B (11730491_at) / RFU GIMAP4 (11747438_a_at) / Fold change /veh GIMAP4 (11747438_a_at) / RFU KRT8 (11758183_x_at) / Fold change /veh KRT8 (11758183_x_at) / RFU CNN1 (11734310_a_at) / Fold change /veh CNN1 (11734310_a_at) / RFU VPS37D (11726825_at) / Fold change /veh VPS37D (11726825_at) / RFU C10orf10 (11716522_x_at) / Fold change /veh C10orf10 (11716522_x_at) / RFU KIR2DL2 /// KIR2DL4 /// KIR2DL5A /// KIR2DL5B /// KIR2DS1 /// KIR2DS2 /// KIR2DS3 /// KIR2DS4 /// KIR3DL3 /// KIR3DL3 /// KIR3DS1 (11738374_at) / Fold change /veh KIR2DL2 /// KIR2DL4 /// KIR2DL5A /// KIR2DL5B /// KIR2DS1 /// KIR2DS2 /// KIR2DS3 /// KIR2DS4 /// KIR3DL3 /// KIR3DL3 /// KIR3DS1 (11738374_at) / RFU C1QL1 (11718748_at) / Fold change /veh C1QL1 (11718748_at) / RFU TMPRSS4 (11747572_a_at) / Fold change /veh TMPRSS4 (11747572_a_at) / RFU HAMP (11756126_x_at) / Fold change /veh HAMP (11756126_x_at) / RFU RNFT2 (11725882_a_at) / Fold change /veh RNFT2 (11725882_a_at) / RFU NR4A2 (11747474_a_at) / Fold change /veh NR4A2 (11747474_a_at) / RFU ABCC12 (11746883_a_at) / Fold change /veh ABCC12 (11746883_a_at) / RFU TMEM136 (11760407_x_at) / Fold change /veh TMEM136 (11760407_x_at) / RFU CLDN22 /// WWC2 (11732394_at) / Fold change /veh CLDN22 /// WWC2 (11732394_at) / RFU HLA-DPB1 (11760878_x_at) / Fold change /veh HLA-DPB1 (11760878_x_at) / RFU SPINT1 (11716480_a_at) / Fold change /veh SPINT1 (11716480_a_at) / RFU GAP43 (11754022_s_at) / Fold change /veh GAP43 (11754022_s_at) / RFU A4GNT (11735810_at) / Fold change /veh A4GNT (11735810_at) / RFU PRB3 (11715151_x_at) / Fold change /veh PRB3 (11715151_x_at) / RFU TUBB4B (11761932_at) / Fold change /veh TUBB4B (11761932_at) / RFU CAPN14 (11732068_a_at) / Fold change /veh CAPN14 (11732068_a_at) / RFU TMCC2 (11721928_a_at) / Fold change /veh TMCC2 (11721928_a_at) / RFU IRGQ (11745062_a_at) / Fold change /veh IRGQ (11745062_a_at) / RFU FAM174B (11720279_a_at) / Fold change /veh FAM174B (11720279_a_at) / RFU TMPRSS4 (11748680_a_at) / Fold change /veh TMPRSS4 (11748680_a_at) / RFU FAM212B (11763350_a_at) / Fold change /veh FAM212B (11763350_a_at) / RFU PLEKHG5 (11743358_a_at) / Fold change /veh PLEKHG5 (11743358_a_at) / RFU ZSCAN30 (11745921_a_at) / Fold change /veh ZSCAN30 (11745921_a_at) / RFU CMKLR1 (11741424_a_at) / Fold change /veh CMKLR1 (11741424_a_at) / RFU LOC101060620 /// MAPK8IP1 (11723275_at) / Fold change /veh LOC101060620 /// MAPK8IP1 (11723275_at) / RFU SPTSSB (11747773_x_at) / Fold change /veh SPTSSB (11747773_x_at) / RFU PRSS12 (11739890_at) / Fold change /veh PRSS12 (11739890_at) / RFU BIN1 (11741810_x_at) / Fold change /veh BIN1 (11741810_x_at) / RFU WNT11 (11732464_a_at) / Fold change /veh WNT11 (11732464_a_at) / RFU C10orf10 (11716521_a_at) / Fold change /veh C10orf10 (11716521_a_at) / RFU C5orf56 (11738089_at) / Fold change /veh C5orf56 (11738089_at) / RFU CYB561 (11721691_x_at) / Fold change /veh CYB561 (11721691_x_at) / RFU ANKRD19P (11752326_a_at) / Fold change /veh ANKRD19P (11752326_a_at) / RFU OR2T12 /// OR2T33 /// OR2T8 (11738714_s_at) / Fold change /veh OR2T12 /// OR2T33 /// OR2T8 (11738714_s_at) / RFU VCAN (11748164_a_at) / Fold change /veh VCAN (11748164_a_at) / RFU JSRP1 (11732532_at) / Fold change /veh JSRP1 (11732532_at) / RFU KRTAP10-11 (11738290_x_at) / Fold change /veh KRTAP10-11 (11738290_x_at) / RFU MYO3A (11730013_a_at) / Fold change /veh MYO3A (11730013_a_at) / RFU EBF3 (11725865_a_at) / Fold change /veh EBF3 (11725865_a_at) / RFU CAMK2N1 (11719241_x_at) / Fold change /veh CAMK2N1 (11719241_x_at) / RFU C5orf56 (11738088_a_at) / Fold change /veh C5orf56 (11738088_a_at) / RFU OLFML3 (11715873_a_at) / Fold change /veh OLFML3 (11715873_a_at) / RFU LOC100653217 /// NTM (11731650_a_at) / Fold change /veh LOC100653217 /// NTM (11731650_a_at) / RFU MAPK11 (11762145_a_at) / Fold change /veh MAPK11 (11762145_a_at) / RFU FIZ1 (11724087_x_at) / Fold change /veh FIZ1 (11724087_x_at) / RFU OASL (11726364_x_at) / Fold change /veh OASL (11726364_x_at) / RFU SOX15 (11748057_x_at) / Fold change /veh SOX15 (11748057_x_at) / RFU CD79A (11719716_a_at) / Fold change /veh CD79A (11719716_a_at) / RFU HIST1H1D (11736915_at) / Fold change /veh HIST1H1D (11736915_at) / RFU CASKIN2 (11723855_a_at) / Fold change /veh CASKIN2 (11723855_a_at) / RFU LOC730098 (11760151_x_at) / Fold change /veh LOC730098 (11760151_x_at) / RFU OR4N2 (11742367_at) / Fold change /veh OR4N2 (11742367_at) / RFU PRRT2 (11749266_a_at) / Fold change /veh PRRT2 (11749266_a_at) / RFU SNX32 (11753110_a_at) / Fold change /veh SNX32 (11753110_a_at) / RFU CDHR5 (11726645_a_at) / Fold change /veh CDHR5 (11726645_a_at) / RFU RCAN1 (11760418_a_at) / Fold change /veh RCAN1 (11760418_a_at) / RFU FAM167A (11723789_a_at) / Fold change /veh FAM167A (11723789_a_at) / RFU FAM26E (11764081_at) / Fold change /veh FAM26E (11764081_at) / RFU ISYNA1 (11749810_s_at) / Fold change /veh ISYNA1 (11749810_s_at) / RFU ACY1 (11761880_at) / Fold change /veh ACY1 (11761880_at) / RFU 11764098_at / Fold change /veh 11764098_at / RFU SAMD14 (11745864_x_at) / Fold change /veh SAMD14 (11745864_x_at) / RFU NPB (11741838_a_at) / Fold change /veh NPB (11741838_a_at) / RFU TMPRSS6 (11731388_a_at) / Fold change /veh TMPRSS6 (11731388_a_at) / RFU KRTAP10-2 (11738614_at) / Fold change /veh KRTAP10-2 (11738614_at) / RFU ARHGAP8 /// PRR5-ARHGAP8 (11727945_x_at) / Fold change /veh ARHGAP8 /// PRR5-ARHGAP8 (11727945_x_at) / RFU KRTAP5-7 /// NADSYN1 (11734609_at) / Fold change /veh KRTAP5-7 /// NADSYN1 (11734609_at) / RFU RASL12 (11751679_a_at) / Fold change /veh RASL12 (11751679_a_at) / RFU CDKN2B (11736163_a_at) / Fold change /veh CDKN2B (11736163_a_at) / RFU PRF1 (11729649_at) / Fold change /veh PRF1 (11729649_at) / RFU, ZNF638 /// ZNF638-IT1 / Fold change vs veh, ZNF638 /// ZNF638-IT1 / RFU, PANK3 / Fold change vs veh, PANK3 / RFU, SH3YL1 / Fold change vs veh, SH3YL1 / RFU, ZEB2 / Fold change vs veh, ZEB2 / RFU, NRIP1 / Fold change vs veh, NRIP1 / RFU, PTTG1IP / Fold change vs veh, PTTG1IP / RFU, CAPN2 / Fold change vs veh, CAPN2 / RFU, MED14 / Fold change vs veh, MED14 / RFU, SNORA58 / Fold change vs veh, SNORA58 / RFU, C1orf63 / Fold change vs veh, C1orf63 / RFU, LRRFIP1 / Fold change vs veh, LRRFIP1 / RFU, NDUFAF7 / Fold change vs veh, NDUFAF7 / RFU, SLC12A2 / Fold change vs veh, SLC12A2 / RFU, IBTK / Fold change vs veh, IBTK / RFU, ESF1 / Fold change vs veh, ESF1 / Fold change vs veh, TMEM50B / RFU, TAOK1 / Fold change vs veh, TAOK1 / RFU, ACBD3 / Fold change vs veh, ACBD3 / RFU, TMA16 / Fold change vs veh, TMA16 / RFU, RWDD3 / Fold change vs veh, RWDD3 / RFU, BCAT1 / Fold change vs veh, BCAT1 / RFU, EDEM3 / Fold change vs veh, EDEM3 / RFU, TMEM33 / Fold change vs veh, TMEM33 / RFU, WDR75 / Fold change vs veh, WDR75 / RFU, AHCTF1 / Fold change vs veh, AHCTF1 / RFU, TFRC / Fold change vs veh, TFRC / RFU, ZDHHC17 / Fold change vs veh, ZDHHC17 / RFU, NOM1 / Fold change vs veh, NOM1 / RFU, ARL8B / Fold change vs veh, ARL8B / RFU, ZBTB11 / Fold change vs veh, ZBTB11 / RFU, TAMM41 / Fold change vs veh, TAMM41 / RFU, KIAA1704 /// LOC100996395 / Fold change vs veh, KIAA1704 /// LOC100996395 / RFU, ING1 / Fold change vs veh, ING1 / RFU, TRMT61B / Fold change vs veh, TRMT61B / RFU, FUBP3 / Fold change vs veh, FUBP3 / RFU, TP53 / Fold change vs veh, TP53 / RFU, TNKS2 / Fold change vs veh, TNKS2 / RFU, ZFP14 / Fold change vs veh, ZFP14 / RFU, ACTR2 / Fold change vs veh, ACTR2 / RFU, PPP3R1 / Fold change vs veh, PPP3R1 / RFU, PIK3R1 / Fold change vs veh, PIK3R1 / RFU, HNRNPA1 / Fold change vs veh, HNRNPA1 / RFU, RNF170 / Fold change vs veh, RNF170 / RFU, ZNF28 / Fold change vs veh, ZNF28 / RFU, RNGTT / Fold change vs veh, RNGTT / RFU, OGT / Fold change vs veh, OGT / RFU, BRD1 / Fold change vs veh, BRD1 / RFU, MARS / Fold change vs veh, MARS / RFU, ZNF655 / Fold change vs veh, ZNF655 / RFU, FAHD1 / Fold change vs veh, FAHD1 / RFU, BDP1 / Fold change vs veh, BDP1 / RFU, LRRCC1 / Fold change vs veh, LRRCC1 / RFU, ARID1A / Fold change vs veh, ARID1A / RFU, ZNF146 / Fold change vs veh, ZNF146 / RFU, ZNF330 / Fold change vs veh, ZNF330 / RFU, GPN3 / Fold change vs veh, GPN3 / RFU, C9orf123 / Fold change vs veh, C9orf123 / RFU, N4BP2L2 / Fold change vs veh, N4BP2L2 / RFU, ARFIP1 / Fold change vs veh, ARFIP1 / RFU, FAM179B / Fold change vs veh, FAM179B / RFU, BCL10 / Fold change vs veh, BCL10 / RFU, UHRF1BP1L / Fold change vs veh, UHRF1BP1L / RFU, BET1 / Fold change vs veh, BET1 / RFU, CNOT2 / Fold change vs veh, CNOT2 / RFU, ZNF268 / Fold change vs veh, ZNF268 / Fold change vs veh, ZNF507 / RFU, DGCR2 / Fold change vs veh, DGCR2 / RFU, WDSUB1 / Fold change vs veh, WDSUB1 / Fold change vs veh, HSP90B1 /// MIR3652 / RFU, ADSS / Fold change vs veh, ADSS / RFU, GK / Fold change vs veh, GK / RFU, ZNF148 / Fold change vs veh, ZNF148 / RFU, TAF9 / Fold change vs veh, TAF9 / RFU, SLC1A5 / Fold change vs veh, SLC1A5 / RFU, SLMO2 / Fold change vs veh, SLMO2 / RFU, ABCC4 / Fold change vs veh, ABCC4 / RFU, LOC101060439 /// RAP1B / Fold change vs veh, LOC101060439 /// RAP1B / RFU, RFX7 / Fold change vs veh, RFX7 / RFU, GTPBP10 / Fold change vs veh, GTPBP10 / RFU, CNEP1R1 / Fold change vs veh, CNEP1R1 / RFU, BIVM-ERCC5 /// ERCC5 / Fold change vs veh, BIVM-ERCC5 /// ERCC5 / RFU, ILF3 / Fold change vs veh, ILF3 / RFU 11762660_at / Fold change /veh 11762660_at / RFU VCAN (11757783_s_at) / Fold change /veh VCAN (11757783_s_at) / RFU DDX43 (11728927_at) / Fold change /veh DDX43 (11728927_at) / RFU KRT8 (11758188_x_at) / Fold change /veh KRT8 (11758188_x_at) / RFU NKD1 (11759106_at) / Fold change /veh NKD1 (11759106_at) / RFU SRD5A1 (11742802_a_at) / Fold change /veh SRD5A1 (11742802_a_at) / RFU TPSAB1 /// TPSB2 (11721975_s_at) / Fold change /veh TPSAB1 /// TPSB2 (11721975_s_at) / RFU GSTM3 (11746129_a_at) / Fold change /veh GSTM3 (11746129_a_at) / RFU IL23R (11737362_x_at) / Fold change /veh IL23R (11737362_x_at) / RFU TMEM51 (11727254_a_at) / Fold change /veh TMEM51 (11727254_a_at) / RFU PIWIL2 (11732686_x_at) / Fold change /veh PIWIL2 (11732686_x_at) / RFU ORM1 (11744905_x_at) / Fold change /veh ORM1 (11744905_x_at) / RFU CCDC152 (11743942_at) / Fold change /veh CCDC152 (11743942_at) / RFU ECM1 (11717891_a_at) / Fold change /veh ECM1 (11717891_a_at) / RFU IL23R (11748794_a_at) / Fold change /veh IL23R (11748794_a_at) / RFU TNFAIP8L3 (11732012_x_at) / Fold change /veh TNFAIP8L3 (11732012_x_at) / RFU MBOAT4 (11741988_at) / Fold change /veh MBOAT4 (11741988_at) / RFU 11764193_at / Fold change /veh 11764193_at / RFU TMEM53 (11763286_at) / Fold change /veh TMEM53 (11763286_at) / RFU MAGEB2 (11727129_at) / Fold change /veh MAGEB2 (11727129_at) / RFU TMEM200A (11744735_a_at) / Fold change /veh TMEM200A (11744735_a_at) / RFU CCDC152 (11751479_a_at) / Fold change /veh CCDC152 (11751479_a_at) / RFU FAM211A (11726209_a_at) / Fold change /veh FAM211A (11726209_a_at) / RFU RGS16 (11746705_a_at) / Fold change /veh RGS16 (11746705_a_at) / RFU VCAN (11755009_s_at) / Fold change /veh VCAN (11755009_s_at) / RFU RHOB (11743442_s_at) / Fold change /veh RHOB (11743442_s_at) / RFU RGS16 (11720943_a_at) / Fold change /veh RGS16 (11720943_a_at) / RFU RGS16 (11720944_at) / Fold change /veh RGS16 (11720944_at) / RFU, VPS4B / Fold change vs veh, VPS4B / RFU, CREB1 / Fold change vs veh, CREB1 / RFU, DNAJC13 / Fold change vs veh, DNAJC13 / RFU, GNAQ / Fold change vs veh, GNAQ / RFU, CDK5R1 / Fold change vs veh, CDK5R1 / RFU, ZRANB3 / Fold change vs veh, ZRANB3 / RFU, CUL4A / Fold change vs veh, CUL4A / RFU, CCNY / Fold change vs veh, CCNY / RFU, UFL1 / Fold change vs veh, UFL1 / RFU, COG3 / Fold change vs veh, COG3 / RFU, DIAPH2 / Fold change vs veh, DIAPH2 / RFU, SKA2 / Fold change vs veh, SKA2 / RFU, AFF3 / Fold change vs veh, AFF3 / RFU, LMF1 / Fold change vs veh, LMF1 / RFU, IPO11 / Fold change vs veh, IPO11 / RFU, DFFB / Fold change vs veh, DFFB / RFU, FOXP1 / Fold change vs veh, FOXP1 / RFU, CARD8 / Fold change vs veh, CARD8 / RFU, STRN3 / Fold change vs veh, STRN3 / RFU, ADK / Fold change vs veh, ADK / RFU, RASSF2 / Fold change vs veh, RASSF2 / RFU, WIPF1 / Fold change vs veh, WIPF1 / RFU, LARP1B / Fold change vs veh, LARP1B / RFU, RASA1 / Fold change vs veh, RASA1 / RFU, RB1 / Fold change vs veh, RB1 / RFU, PPFIA1 / Fold change vs veh, PPFIA1 / RFU, MAT2A / Fold change vs veh, MAT2A / RFU, CCT5 / Fold change vs veh, CCT5 / RFU, WDR92 / Fold change vs veh, WDR92 / RFU, CUX1 / Fold change vs veh, CUX1 / RFU, TTC7A / Fold change vs veh, TTC7A / RFU, TMEM135 / Fold change vs veh, TMEM135 / RFU, DEPTOR / Fold change vs veh, DEPTOR / RFU, CPM / Fold change vs veh, CPM / RFU, DNAJB6 / Fold change vs veh, DNAJB6 / RFU, CACNA2D3 / Fold change vs veh, CACNA2D3 / RFU, DTX4 / Fold change vs veh, DTX4 / RFU, TFCP2 / Fold change vs veh, TFCP2 / RFU, GMCL1 /// GMCL1P1 / Fold change vs veh, GMCL1 /// GMCL1P1 / RFU, AEBP2 / Fold change vs veh, AEBP2 / RFU, SNHG1 /// SNORD22 /// SNORD25 /// SNORD26 /// SNORD27 /// SNORD28 /// SNORD29 /// SNORD31 / Fold change vs veh, SNHG1 /// SNORD22 /// SNORD25 /// SNORD26 /// SNORD27 /// SNORD28 /// SNORD29 /// SNORD31 / Fold change (Aza/veh), C12orf56 (ProbeSet 11735607_a_at) / Fold change (ACY-1035/veh), C12orf56 (ProbeSet 11735607_a_at) / Fold change (Aza/veh), FGFR1OP (ProbeSet 11751329_s_at) / Fold change (ACY-1035/veh), FGFR1OP (ProbeSet 11751329_s_at) / Fold change (Aza/veh), VPS36 (ProbeSet 11739960_a_at) / Fold change (ACY-1035/veh), VPS36 (ProbeSet 11739960_a_at) / RFU SYPL1 (11715823_x_at) / Fold change /veh SYPL1 (11715823_x_at) / RFU IGFBP7 (11715501_s_at) / Fold change /veh IGFBP7 (11715501_s_at) / RFU REEP3 (11722064_at) / Fold change /veh REEP3 (11722064_at) / RFU IGLL1 (11728026_x_at) / Fold change /veh IGLL1 (11728026_x_at): dose or concentration left out as unconfirmed
Settings: MV-4-11 cells, 48 hours

## Nc1ncn([C@@H]2O[C@H](CO)[C@@H](O)[C@H]2O)c(=O)n1 [azacitidine]
  RFU PRRT2 (11749266_a_at): 42.08 RFU

— article PMC5218480 (PLoS ONE, 2017)
